Results: ChEMBL document CHEMBL1201862, “PubChem BioAssay data set” (2004)
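A five-concentration, 48-hour dose response in 96-well plates underlies each endpoint, interpolated linearly between surrounding concentrations. Abbreviation: GI50, concentration required for 50% inhibition of growth.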 The source made the active and inactive calls. No stated cut-off is given here; in the data, active = GI50 up to about 1.1 µM and inactive = higher.

How the values were obtained:
Experiment in all cases: inhibition of tumour cell growth, NCI panel, 48 h
K562 = system: K562
NCI-H23 = system: NCI-H23
SK-MEL-2 = system: SK-MEL-2
SNB-75 = system: SNB-75
HT-29 = system: HT-29
RPMI-8226 = system: RPMI-8226
HCT-15 = system: HCT-15
U-251 = system: U-251
OVCAR-8 = system: OVCAR-8
NCI-H460 = system: NCI-H460
MDA-MB-231 = system: MDA-MB-231
SF-295 = system: SF-295
SF-268 = system: SF-268
A498 = system: A498
HOP-62 = system: HOP-62
SK-MEL-28 = system: SK-MEL-28
COLO 205 = system: COLO 205
KM12 = system: KM12
ACHN = system: ACHN
EKVX = system: EKVX

Row | Structure (SMILES) | GI50 (K562) | GI50 (NCI-H23) | GI50 (SK-MEL-2) | GI50 (SNB-75) | GI50 (HT-29) | GI50 (RPMI-8226) | GI50 (HCT-15) [µM] | GI50 (U-251) | GI50 (OVCAR-8) | GI50 (NCI-H460) | GI50 (MDA-MB-231) | GI50 (SF-295) | GI50 (SF-268) | GI50 (A498) | GI50 (HOP-62) | GI50 (SK-MEL-28) | GI50 (COLO 205) | GI50 (KM12) | GI50 (ACHN) | GI50 (EKVX)
1 | COC(=O)Nc1nc2cc(C(=O)c3ccc[nH]3)ccc2[nH]1 | 0.387 µM (active) | 6.87 µM (inactive) | 0.353 µM (active) | 0.235 µM (active) | 0.415 µM (active) | 0.49 µM (active) | 0.319 | 0.721 µM (active) | 3.18 µM (inactive) | 0.596 µM (active) | 20.6 µM (inactive) | 0.759 µM (active) | 2.04 µM (inactive) | 3.04 µM (inactive) | 1.44 µM (inactive) | 0.711 µM (active) | 0.342 µM (active) | 0.49 µM (active) | – | –
2 | SC1=NC2=C(CSC/C2=C\c2cccc(Br)c2)C(c2cccc(Br)c2)N1 (stereo unspecified) | 45.7 µM (inactive) | 63.4 µM (inactive) | > 100 µM (inactive) | 41.6 µM (inactive) | 42.3 µM (inactive) | 64.7 µM (inactive) | > 100 | > 100 µM (inactive) | > 100 µM (inactive) | 55.6 µM (inactive) | > 100 µM (inactive) | > 100 µM (inactive) | > 100 µM (inactive) | > 100 µM (inactive) | > 100 µM (inactive) | > 100 µM (inactive) | 36.2 µM (inactive) | 88.5 µM (inactive) | > 100 µM (inactive) | 42.3 µM (inactive)
3 | Cc1cn(C2CC(O)C(CO[Si](C)(C)C(C)(C)C)OC2OC(C)C)c(=O)[nH]c1=O (stereo unspecified) | 49.3 µM (inactive) | 39.6 µM (inactive) | 36 µM (inactive) | > 100 µM (inactive) | 20 µM (inactive) | 37.7 µM (inactive) | 58.5 | 39.3 µM (inactive) | 33.5 µM (inactive) | 31.6 µM (inactive) | 35.2 µM (inactive) | 65 µM (inactive) | 51.3 µM (inactive) | > 10 µM (inactive) | – | 41 µM (inactive) | 21.5 µM (inactive) | 49.5 µM (inactive) | 50.5 µM (inactive) | 42.5 µM (inactive)
4 | CN1C2CCC1C(CO)C(=O)C2 (stereo unspecified) | 24.6 µM (inactive) | > 100 µM (inactive) | > 100 µM (inactive) | > 100 µM (inactive) | – | 21.3 µM (inactive) | 24.9 | > 100 µM (inactive) | 50.9 µM (inactive) | > 100 µM (inactive) | > 100 µM (inactive) | > 100 µM (inactive) | > 100 µM (inactive) | > 100 µM (inactive) | > 100 µM (inactive) | > 100 µM (inactive) | 17.6 µM (inactive) | > 100 µM (inactive) | 38.6 µM (inactive) | –
5 | CCOC(=O)C(=NN(C)c1ncccc1N)C(=O)OCC | 25.4 µM (inactive) | 45.5 µM (inactive) | 29.6 µM (inactive) | > 100 µM (inactive) | 65.6 µM (inactive) | 30.3 µM (inactive) | 32.9 | > 100 µM (inactive) | 38.3 µM (inactive) | > 100 µM (inactive) | 25.6 µM (inactive) | > 100 µM (inactive) | > 100 µM (inactive) | 39.8 µM (inactive) | > 100 µM (inactive) | > 100 µM (inactive) | 14.4 µM (inactive) | > 100 µM (inactive) | – | –
6 | Cc1ccc(C)c(NC(=O)/C(=N\N)C(c2cnc3ccc([N+](=O)[O-])cc3n2)[N+](=O)[O-])c1 (stereo unspecified) | > 100 µM (inactive) | 70.8 µM (inactive) | 71.6 µM (inactive) | > 100 µM (inactive) | 65.8 µM (inactive) | 45.9 µM (inactive) | > 100 | > 100 µM (inactive) | 37 µM (inactive) | 70.3 µM (inactive) | 37.8 µM (inactive) | > 100 µM (inactive) | 93.5 µM (inactive) | 83.2 µM (inactive) | 40 µM (inactive) | > 100 µM (inactive) | – | 47.9 µM (inactive) | 14.5 µM (inactive) | 43.3 µM (inactive)
7 | CCOC(=O)N1CCN(c2ccc3c(C)cc(C)nc3n2)CC1 | > 100 µM (inactive) | > 100 µM (inactive) | > 100 µM (inactive) | > 100 µM (inactive) | > 100 µM (inactive) | > 100 µM (inactive) | > 100 | > 100 µM (inactive) | > 100 µM (inactive) | > 100 µM (inactive) | > 100 µM (inactive) | > 100 µM (inactive) | > 100 µM (inactive) | > 100 µM (inactive) | > 100 µM (inactive) | > 100 µM (inactive) | > 100 µM (inactive) | > 100 µM (inactive) | > 100 µM (inactive) | > 100 µM (inactive)
8 | COc1ccc2ccc3oc(=O)c(C)cc3c2c1 | > 100 µM (inactive) | > 100 µM (inactive) | > 100 µM (inactive) | 28.8 µM (inactive) | > 100 µM (inactive) | > 100 µM (inactive) | – | > 100 µM (inactive) | > 100 µM (inactive) | > 100 µM (inactive) | 33.9 µM (inactive) | > 100 µM (inactive) | > 100 µM (inactive) | > 100 µM (inactive) | > 100 µM (inactive) | > 100 µM (inactive) | > 100 µM (inactive) | > 100 µM (inactive) | > 100 µM (inactive) | 8.32 µM (inactive)
